Laboratory results from paper PMC11393688, “Design and synthesis of new 1,2,4-oxadiazole/quinazoline-4-one hybrids with antiproliferative activity as multitargeted inhibitors” (Frontiers in Chemistry, 2024).

Experiments:
[1] = tested on: colon cancer (HT-29) cell line; experiment: Antiproliferative MTT assay, HT-29; type: cell-based; conditions: Homo sapiens, HT-29 colon cancer cells, read-out: Antiproliferative activity IC50 ± SEM HT-29
[2] = tested on: lung cancer (A-549) cell line; experiment: Antiproliferative MTT assay, A-549; type: cell-based; conditions: Homo sapiens, A549, A-549 lung cancer cells, read-out: Antiproliferative activity IC50 ± SEM A-549
Method: (§1) 4.2.1.2. Assay for antiproliferative effect
(§2) To explore the antiproliferative potential of compounds MTT assay was performed according to previously reported procedure using different cell lines to explore the antiproliferative potential of […]
(§3) calculate the total nuclear DNA, a fluorescent dye (propidium iodide, PI) is used which can attach to the DNA, thus offering a quick and precise technique. PI cannot pass through the cell membrane and its signal intensity can be considered as directly proportional to quantity of cellular DNA.
(§4) Cells whose cell membranes are damaged or have changed permeability are counted as dead ones.
(§5) The assay was performed by seeding the cells of different cell lines at a density of 3000-7500 cells/well (in 200µl medium) in culture plates followed by incubation for 24h at 37 °C in humidified 5% CO2/95% air atmospheric conditions. The medium was removed; the compounds were added to the plates at 10 µM concentrations (in 0.1% DMSO) in triplicates, followed by incubation for 48 h. DMSO (0.1%) was used as control. After incubation, medium was removed […]
(§6) 80 °C, the plates were allowed to freeze for 24 h, followed by thawing at 25 °C. […]
(§7) (Polar-Star BMG Tech) was used to record the readings at excitation and emission wavelengths of 530 and 620 nm for each well. The percentage cytotoxicity of compounds was calculated using […]
(§8) Where ATC= Absorbance of treated cells and AC= Absorbance of control. Erlotinib was used as positive control in the assay.

BRAF^V600E [3] = molecular target: T1, BRAF^V600E (Homo sapiens, UniProt P15056, V600E); experiment: BRAF^V600E kinase inhibitory assay; type: biochemical, Mouse; conditions: read-out: BRAF^V600E inhibition IC50 ± SEM
T1 construct: Mouse full-length GST-tagged BRAFV600E; GST; purchased Invitrogen PV3849
T1 sequence (P15056 2-766 V600E limits assumed): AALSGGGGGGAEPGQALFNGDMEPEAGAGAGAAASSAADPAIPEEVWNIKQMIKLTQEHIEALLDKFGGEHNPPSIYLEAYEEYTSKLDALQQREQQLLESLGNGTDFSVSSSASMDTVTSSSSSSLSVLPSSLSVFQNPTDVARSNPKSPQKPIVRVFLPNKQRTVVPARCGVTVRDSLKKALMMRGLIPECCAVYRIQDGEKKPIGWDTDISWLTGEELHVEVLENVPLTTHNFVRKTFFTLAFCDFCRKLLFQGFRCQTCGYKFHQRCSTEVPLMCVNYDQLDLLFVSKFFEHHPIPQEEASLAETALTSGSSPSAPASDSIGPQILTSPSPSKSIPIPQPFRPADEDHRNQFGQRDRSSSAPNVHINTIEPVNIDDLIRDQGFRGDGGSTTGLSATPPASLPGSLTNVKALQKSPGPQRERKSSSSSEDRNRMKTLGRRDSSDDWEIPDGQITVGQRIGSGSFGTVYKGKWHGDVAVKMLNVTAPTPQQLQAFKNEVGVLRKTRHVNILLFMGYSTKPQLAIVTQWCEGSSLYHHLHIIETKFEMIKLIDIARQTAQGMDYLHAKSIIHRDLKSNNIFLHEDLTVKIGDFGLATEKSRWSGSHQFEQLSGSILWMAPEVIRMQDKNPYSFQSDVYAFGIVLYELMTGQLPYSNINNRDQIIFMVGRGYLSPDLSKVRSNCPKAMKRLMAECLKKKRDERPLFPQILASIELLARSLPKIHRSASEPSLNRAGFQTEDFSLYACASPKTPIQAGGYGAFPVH
Method: Refer to Supplementary Appendix A for more details. […]
4.2.1.4. BRAF kinase assay […]
against BRAF. Mouse full-length GST-tagged BRAFV600E (7.5 ng, Invitrogen, PV3849) was pre-incubated with drug (1 µL) and assay dilution buffer (4 µL) for 60 min at 25 °C. In assay dilution buffer, a solution (5 µL) containing MgCl2 (30 mM), ATP (200 µM), recombinant human full length (200 ng) […] N-terminal His-tagged MEK1 (Invitrogen) was added to start the assay, subsequent to incubation for 25 min at 25 °C. The assay was stopped using 5X protein denaturing buffer (LDS) solution (5 µL). To further denature the protein, heat (70° C) was applied for 5 min.
10 µL of each reaction was loaded into the precast plates and electrophoresis was allowed to proceed. After completion of electrophoresis, the front part of the precast gel plate (holding hot ATP) was cut and afterwards cast-off. The dried gel was developed using a phosphor screen. A […]
served as positive control. […]
(FITC) and propidium iodide (PI) staining kit (BD Pharmingen, San Diego, USA). […]
4.3. Statistical analysis
Computerized Prism 5 program was used to statistically analyzed data using one-way ANOVA test followed by Tukey’s as post ANOVA for multiple comparison at P ≤.05. Data were presented

[4] = Cell viability, MTT test on normal cell line; type: cell-based; conditions: human, MCF-10A mammary gland epithelial cells (normal cell line), MCF-10A normal cells, 4 days incubation
Method: The human mammary gland epithelial (MCF-10A) normal cell line was used to test the viability of novel compounds 9a-o ([Mahmoud et al., 2022]; [Mekheimer et al., 2022]). After 4 days of incubation on MCF-10A cells, the cell viability of compounds 9a-o was determined using the MTT test.
The human mammary gland epithelial (MCF-10A) normal cell line was used to test the viability of compounds 9a-o ([Mahmoud et al., 2022]; [Mekheimer et al., 2022]). Refer to Supplementary Appendix A (Supplementary Material) for more details.
4.2. Biological evaluation
4.2.1. Cytotoxic activity using MTT Assay and evaluation of IC50
MTT assay was carried out to study the effect of compounds on mammary epithelial cells (MCF-10A). The medium in which cells were propagated contained Dulbecco's modified Eagle's medium (DMEM)/ Ham's F-12 medium (1:1) supplemented with epidermal growth factor (20 ng/mL), hydrocortisone (500 ng/mL), insulin (10 μg/mL), 2 mM glutamine and 10% foetal calf serum.
After every 2-3 days, the cells were passaged using trypsin ethylenediamine tetra acetic acid (EDTA). The cells were seeded at a density of 10^4 cells mL-1 in flat-bottomed culture plates containing 96 wells each. After 24 h, medium was removed from the plates and the compounds in (in 0.1% DMSO) were added (in 200 μL medium to yield a final concentration of 0.1% v/v) to the wells of plates. A single compound was designated with four wells followed by incubation of plates for 96h at 37°C. After incubation, medium was removed completely from the plates followed by addition of MTT (0.4 mg/mL in medium) to each well and subsequent incubation of plates for 3h. MTT (along with the medium) was removed and DMSO (150μL) was added to each well of the culture plates, followed by vertexing and subsequent measurement of absorbance (at 540 nm) using microplate reader. The data are shown as percentage inhibition of proliferation in comparison with controls containing 0.1% DMSO.

[5] = tested on: breast cancer (MCF-7) cell line; experiment: Antiproliferative MTT assay, MCF-7; type: cell-based; conditions: Homo sapiens, MCF7, MCF-7 breast cancer cells, read-out: Antiproliferative activity IC50 ± SEM MCF-7
Method: as §1, §2, §3, §4, §5, §6, §7, §8

[6] = tested on: pancreatic cancer (Panc-1) cell line; experiment: Antiproliferative MTT assay, Panc-1; type: cell-based; conditions: Homo sapiens, Panc-1 pancreatic cancer cells, read-out: Antiproliferative activity IC50 ± SEM Panc-1
Method: as §1, §2, §3, §4, §5, §6, §7, §8

[7] = tested on: four human cancer cell lines (HT-29, Panc-1, A-549, MCF-7); experiment: Average antiproliferative activity (GI50) over four cancer cell lines; type: cell-based; conditions: average IC50 against the four cancer cell lines
Method: as §1, §2, §3, §4, §5, §6, §7, §8

EGFR^T790M = EGFR^T790M (Homo sapiens, UniProt P00533, T790M); experiment: EGFR^T790M inhibitory assay (HTRF KinEASE-TK)
Sequence of EGFR^T790M (P00533 25-1210 T790M): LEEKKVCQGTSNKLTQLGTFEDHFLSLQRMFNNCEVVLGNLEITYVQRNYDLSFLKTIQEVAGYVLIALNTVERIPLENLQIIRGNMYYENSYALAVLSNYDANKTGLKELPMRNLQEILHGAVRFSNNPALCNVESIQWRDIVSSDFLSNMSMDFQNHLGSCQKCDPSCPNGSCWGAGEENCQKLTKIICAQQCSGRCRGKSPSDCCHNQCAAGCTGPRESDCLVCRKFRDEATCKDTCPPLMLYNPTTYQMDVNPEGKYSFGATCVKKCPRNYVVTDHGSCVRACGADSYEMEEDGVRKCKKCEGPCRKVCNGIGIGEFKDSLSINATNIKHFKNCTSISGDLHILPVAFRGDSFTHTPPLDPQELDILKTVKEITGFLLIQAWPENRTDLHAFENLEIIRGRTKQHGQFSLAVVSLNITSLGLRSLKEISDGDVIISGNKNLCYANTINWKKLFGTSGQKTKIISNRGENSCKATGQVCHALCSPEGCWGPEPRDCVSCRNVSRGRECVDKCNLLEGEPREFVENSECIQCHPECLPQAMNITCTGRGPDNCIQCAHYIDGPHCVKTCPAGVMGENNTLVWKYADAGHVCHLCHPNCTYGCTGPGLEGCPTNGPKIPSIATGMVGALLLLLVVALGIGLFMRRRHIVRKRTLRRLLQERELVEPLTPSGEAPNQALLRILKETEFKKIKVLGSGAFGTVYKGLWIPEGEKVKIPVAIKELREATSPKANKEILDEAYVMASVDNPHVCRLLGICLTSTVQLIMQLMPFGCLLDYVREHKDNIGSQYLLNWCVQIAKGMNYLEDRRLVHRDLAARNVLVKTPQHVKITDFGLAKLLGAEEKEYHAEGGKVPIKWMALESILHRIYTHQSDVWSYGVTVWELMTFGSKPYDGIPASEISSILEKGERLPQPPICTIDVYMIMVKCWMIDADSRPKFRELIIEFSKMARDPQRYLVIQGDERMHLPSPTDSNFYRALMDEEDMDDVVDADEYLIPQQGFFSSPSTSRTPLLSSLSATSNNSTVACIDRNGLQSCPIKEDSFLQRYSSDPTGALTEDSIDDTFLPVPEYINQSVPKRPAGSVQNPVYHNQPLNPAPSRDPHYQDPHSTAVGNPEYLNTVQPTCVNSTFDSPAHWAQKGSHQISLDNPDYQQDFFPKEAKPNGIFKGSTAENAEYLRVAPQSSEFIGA

EGFR [8] = molecular target: T2, EGFR (Homo sapiens, UniProt P00533); experiment: EGFR-TK inhibitory assay; type: biochemical; conditions: read-out: EGFR inhibition IC50 ± SEM
T2 construct: amino acids 645–1186; His6 (N); made in house; host or cells: Sf-9 insect cells (baculovirus; pBlueBacHis2B / pFASTBacHTc)
T2 sequence (P00533 669-1210): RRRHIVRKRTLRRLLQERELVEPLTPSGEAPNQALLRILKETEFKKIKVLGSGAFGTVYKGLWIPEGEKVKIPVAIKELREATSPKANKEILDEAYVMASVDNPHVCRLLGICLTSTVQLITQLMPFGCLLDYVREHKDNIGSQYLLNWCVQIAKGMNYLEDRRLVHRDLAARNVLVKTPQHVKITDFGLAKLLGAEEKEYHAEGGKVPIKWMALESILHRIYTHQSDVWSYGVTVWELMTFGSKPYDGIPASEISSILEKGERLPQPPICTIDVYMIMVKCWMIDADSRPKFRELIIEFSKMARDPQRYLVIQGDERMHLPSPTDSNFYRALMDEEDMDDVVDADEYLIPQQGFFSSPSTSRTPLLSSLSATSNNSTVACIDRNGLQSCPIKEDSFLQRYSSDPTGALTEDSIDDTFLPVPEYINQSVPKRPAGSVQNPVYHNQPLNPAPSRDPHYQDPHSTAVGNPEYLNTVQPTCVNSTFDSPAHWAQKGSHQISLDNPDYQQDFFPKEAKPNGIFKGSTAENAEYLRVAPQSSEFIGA
Method: 4.2.1.3. EGFR inhibitory assay
Sf-9 cells were infected for 72h for protein expression. […]
centrifugation for 20 min.
Histidine-linked proteins were first eluted with 250 and then […]
using wash buffer. Europium-tagged antiphosphotyrosine antibody (75 µL, 400 ng) was added to each well followed by incubation of 1h and then washing of the plates using buffer. The enhancement solution was added to each well and the signal was recorded at excitation and […]
The autophosphorylation percentage inhibition by compounds was calculated using the following equation: […]
(1 picture or pasted object on this page, not shown here)

[9] = tested on: various cancer cell lines; parameters: method as in Hisham et al., 2022; Hisham et al., 2023; conditions: ref Hisham et al., 2022, 2023; cited from earlier work
BRAF^V600E [10] = tested on: BRAF^V600E; parameters: method as in Hisham et al., 2022; Hisham et al., 2023; conditions: ref Hisham et al., 2022, 2023, read-out: IC50 against BRAF^V600E; cited from earlier work
EGFR [11] = molecular target: T2, EGFR; parameters: method as in Okaniwa et al., 2012; Zhang et al., 2013; conditions: ref Okaniwa et al., 2012; Zhang et al., 2013; cited from earlier work
wild-type BRAF = tested on: wild-type BRAF; parameters: method as in Okaniwa et al., 2012; Zhang et al., 2013; conditions: ref Okaniwa et al., 2012; Zhang et al., 2013; cited from earlier work

Compound | IC50 [1] | IC50 [2] | IC50 (BRAF^V600E [3]) | viability at 96 h, 50 µM [4] | IC50 [5] | IC50 [6] | GI50 [7] | IC50 (EGFR^T790M) | IC50 (EGFR [8]) | melting point | GI50 [9] | IC50 (BRAF^V600E [10]) | IC50 against EGFR (EGFR [11]) | IC50 against wild-type BRAF (wild-type BRAF)
COc1ccc(-c2noc(CSc3nc4ccccc4c(=O)n3-c3ccccc3)n2)cc1 [Compound 9c, 2-((3-(4-Methoxyphenyl)-1,2,4-oxadiazol-5-yl)methylthio)-3-phenylquinazolin-4(3H)-one] | 25 ± 2 nM | 24 ± 2 nM | 51 ± 5 nM | 91% | 28 ± 3 nM | 26 ± 2 nM | 26 nM | 11 ± 2 nM | 64 ± 5 nM | 186 to 188 °C |  |  |  | 
Cc1cccc(-n2c(SCc3nc(-c4ccc(Cl)cc4)no3)nc3ccccc3c2=O)c1 [Compound 9h, 2-((3-(4-Chlorophenyl)-1,2,4-oxadiazol-5-yl)methylthio)-3-m-tolylquinazolin-4(3H)-one] | 30 ± 3 nM | 28 ± 2 nM | 57 ± 5 nM | 89% | 31 ± 3 nM | 29 ± 2 nM | 30 nM | 15 ± 2 nM | 72 ± 5 nM | 178 to 180 °C |  |  |  | 
COc1cccc2c1C(=O)c1c(O)c3c(c(O)c1C2=O)C[C@@](O)(C(=O)CO)C[C@@H]3O[C@H]1C[C@H](N)[C@H](O)[C@H](C)O1 [Doxorubicin] |  |  |  |  |  |  |  |  |  |  | 1140 nM |  |  | 
C=CCn1c(SCC(=O)Nc2cccc(C(=O)/C=C/c3ccc(OC)cc3)c2)nc2ccccc2c1=O [IX] |  |  |  |  |  |  |  |  |  |  | 1160 nM | 650 nM |  | 
COc1cc2ncnc(Nc3cccc(NC(=O)Nc4ccc(Cl)c(C(F)(F)F)c4)c3)c2cc1OCCCN1CCOCC1 [I] |  |  |  |  |  |  |  |  |  |  |  |  | nanomolar range | nanomolar range
